Assay results reported in PubChem BioAssay (NCI).
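Five concentrations, 48 hours, 96-well plates. GI50 is the concentration that inhibits growth by half. TGI: total growth inhibition.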

Experiments:
Assay in all cases: inhibition of tumour cell growth, NCI panel, 48 h
786-0 renal = test system: 786-0 renal
A498 renal = test system: A498 renal
A549 NSCLC = test system: A549 NSCLC
ACHN renal = test system: ACHN renal
BT-549 breast = test system: BT-549 breast
CAKI-1 renal = test system: CAKI-1 renal
CCRF-CEM leukemia = test system: CCRF-CEM leukemia
COLO 205 colon = test system: COLO 205 colon
DU-145 prostate = test system: DU-145 prostate
EKVX NSCLC = test system: EKVX NSCLC
HCC-2998 colon = test system: HCC-2998 colon
HCT-116 colon = test system: HCT-116 colon
HCT-15 colon = test system: HCT-15 colon
HL-60(TB) leukemia = test system: HL-60(TB) leukemia
HOP-62 NSCLC = test system: HOP-62 NSCLC
HOP-92 NSCLC = test system: HOP-92 NSCLC
HS 578T breast = test system: HS 578T breast
HT29 colon = test system: HT29 colon
IGROV1 ovarian = test system: IGROV1 ovarian
K-562 leukemia = test system: K-562 leukemia
KM12 colon = test system: KM12 colon
LOX IMVI melanoma = test system: LOX IMVI melanoma
M14 melanoma = test system: M14 melanoma
MALME-3M melanoma = test system: MALME-3M melanoma
MCF7 breast = test system: MCF7 breast
MDA-MB-231 breast = test system: MDA-MB-231 breast
MDA-MB-435 = test system: MDA-MB-435
MOLT-4 leukemia = test system: MOLT-4 leukemia
NCI-H226 lung = test system: NCI-H226 lung
NCI-H23 lung = test system: NCI-H23 lung
NCI-H460 lung = test system: NCI-H460 lung
NCI-H522 lung = test system: NCI-H522 lung
NCI/ADR-RES ovarian = test system: NCI/ADR-RES ovarian
OVCAR-3 ovarian = test system: OVCAR-3 ovarian
OVCAR-4 ovarian = test system: OVCAR-4 ovarian
OVCAR-5 ovarian = test system: OVCAR-5 ovarian
OVCAR-8 ovarian = test system: OVCAR-8 ovarian
PC-3 prostate = test system: PC-3 prostate
RPMI-8226 leukemia = test system: RPMI-8226 leukemia
RXF 393 renal = test system: RXF 393 renal
SF-268 CNS = test system: SF-268 CNS
SF-295 CNS = test system: SF-295 CNS
SF-539 CNS = test system: SF-539 CNS
SK-MEL-2 melanoma = test system: SK-MEL-2 melanoma
SK-MEL-28 melanoma = test system: SK-MEL-28 melanoma
SK-MEL-5 melanoma = test system: SK-MEL-5 melanoma
SK-OV-3 ovarian = test system: SK-OV-3 ovarian
SN12C renal = test system: SN12C renal
SNB-19 CNS = test system: SNB-19 CNS
SNB-75 CNS = test system: SNB-75 CNS
SR leukemia = test system: SR leukemia
T-47D breast = test system: T-47D breast
TK-10 renal = test system: TK-10 renal
U251 CNS = test system: U251 CNS
UACC-257 melanoma = test system: UACC-257 melanoma
UACC-62 melanoma = test system: UACC-62 melanoma
UO-31 renal = test system: UO-31 renal
SW-620 colon = test system: SW-620 colon

## CCCCCCCCCCCCNC(=O)N[C@H](C(=O)N[C@H]1/C=C/OCCNC(=O)/C=C/[C@H](C(C)C)NC1=O)C(C)C
786-0 renal
  GI50: 40.1 µM
  TGI: > 100 µM
A498 renal
  GI50: 7.81 µM
  TGI: 57 µM
A549 NSCLC
  GI50: 32.3 µM
  TGI: > 100 µM
ACHN renal
  GI50: 51.3 µM
  TGI: > 100 µM
BT-549 breast
  GI50: 2.19 µM
  TGI: 33.6 µM
CAKI-1 renal
  GI50: > 100 µM
  TGI: > 100 µM
CCRF-CEM leukemia
  GI50: 2.16 µM
  TGI: > 100 µM
COLO 205 colon
  GI50: 20 µM
  TGI: > 57.4 µM
DU-145 prostate
  GI50: 14 µM
  TGI: > 100 µM
EKVX NSCLC
  GI50: 36.6 µM
  TGI: > 100 µM
HCC-2998 colon
  GI50: 12.9 µM
  TGI: > 60.1 µM
HCT-116 colon
  GI50: 1.67 µM
  TGI: 21.7 µM
HCT-15 colon
  GI50: > 66.3 µM
  TGI: > 100 µM
HL-60(TB) leukemia
  GI50: 14.7 µM
  TGI: 55.7 µM
HOP-62 NSCLC
  GI50: 8.5 µM
  TGI: 34 µM
HOP-92 NSCLC
  GI50: 5.14 µM
  TGI: 58.7 µM
HS 578T breast
  GI50: 3.22 µM
  TGI: 38.1 µM
HT29 colon
  GI50: 0.599 µM
  TGI: 65.4 µM
IGROV1 ovarian
  GI50: 2.12 µM
  TGI: > 100 µM
K-562 leukemia
  GI50: 9.15 µM
  TGI: > 100 µM
KM12 colon
  GI50: 4.72 µM
  TGI: 30 µM
LOX IMVI melanoma
  GI50: 9.4 µM
  TGI: 36.4 µM
M14 melanoma
  GI50: 20.2 µM
  TGI: > 70.3 µM
MALME-3M melanoma
  GI50: 39.3 µM
  TGI: > 100 µM
MCF7 breast
  GI50: 0.385 µM
  TGI: > 100 µM
MDA-MB-231 breast
  GI50: 11.7 µM
  TGI: 49.3 µM
MDA-MB-435
  GI50: 1.48 µM
  TGI: > 100 µM
MOLT-4 leukemia
  GI50: 3.26 µM
  TGI: > 100 µM
NCI-H226 lung
  GI50: 4.53 µM
  TGI: > 19.7 µM
NCI-H23 lung
  GI50: 0.973 µM
  TGI: > 100 µM
NCI-H460 lung
  GI50: 6.16 µM
  TGI: 61.3 µM
NCI-H522 lung
  GI50: 0.372 µM
  TGI: 5.2 µM
NCI/ADR-RES ovarian
  GI50: > 100 µM
  TGI: > 100 µM
OVCAR-3 ovarian
  GI50: 0.568 µM
  TGI: > 78.7 µM
OVCAR-4 ovarian
  GI50: 3.61 µM
  TGI: > 100 µM
OVCAR-5 ovarian
  GI50: 6.82 µM
  TGI: > 92.7 µM
OVCAR-8 ovarian
  GI50: 13.7 µM
  TGI: 34.1 µM
PC-3 prostate
  GI50: 0.682 µM
  TGI: > 100 µM
RPMI-8226 leukemia
  GI50: 0.389 µM
  TGI: 59.4 µM
RXF 393 renal
  GI50: 3.65 µM
  TGI: 28.2 µM
SF-268 CNS
  GI50: 7.99 µM
  TGI: > 100 µM
SF-295 CNS
  GI50: 21.4 µM
  TGI: > 100 µM
SF-539 CNS
  GI50: 2.49 µM
  TGI: 18.4 µM
SK-MEL-2 melanoma
  GI50: 4 µM
  TGI: > 59.2 µM
SK-MEL-28 melanoma
  GI50: 3.28 µM
  TGI: 26.2 µM
SK-MEL-5 melanoma
  GI50: 2.03 µM
  TGI: 14.8 µM
SK-OV-3 ovarian
  GI50: > 75.3 µM
  TGI: > 100 µM
SN12C renal
  GI50: 23.6 µM
  TGI: > 100 µM
SNB-19 CNS
  GI50: 4.3 µM
  TGI: > 100 µM
SNB-75 CNS
  GI50: 4.31 µM
  TGI: > 100 µM
SR leukemia
  GI50: 0.393 µM
  TGI: 20.9 µM
T-47D breast
  GI50: 3.14 µM
  TGI: > 100 µM
TK-10 renal
  GI50: 10.3 µM
  TGI: > 76.4 µM
U251 CNS
  GI50: 2.15 µM
  TGI: > 55.2 µM
UACC-257 melanoma
  GI50: 20 µM
  TGI: > 93.7 µM
UACC-62 melanoma
  GI50: 3.1 µM
  TGI: 39 µM
UO-31 renal
  GI50: > 100 µM
  TGI: > 100 µM

## CCN(CC)c1ccc(C=C2C(=O)NC(=S)NC2=O)cc1
786-0 renal
  GI50: 2.27 µM
  TGI: 4.08 µM
A498 renal
  GI50: 3.29 µM
  TGI: 11.3 µM
A549 NSCLC
  GI50: 12.1 µM
  TGI: 28 µM
ACHN renal
  GI50: 5.82 µM
  TGI: 18.5 µM
BT-549 breast
  GI50: 2.27 µM
  TGI: 4.74 µM
CAKI-1 renal
  GI50: 1.72 µM
  TGI: 4.5 µM
CCRF-CEM leukemia
  GI50: 2.12 µM
  TGI: 6.89 µM
COLO 205 colon
  GI50: 2.49 µM
  TGI: 6.62 µM
DU-145 prostate
  GI50: 4.18 µM
  TGI: 13 µM
EKVX NSCLC
  GI50: 14 µM
  TGI: 28.6 µM
HCC-2998 colon
  GI50: 1.99 µM
  TGI: 3.73 µM
HCT-116 colon
  GI50: 3.34 µM
  TGI: 8.98 µM
HCT-15 colon
  GI50: 3.24 µM
  TGI: 9.22 µM
HL-60(TB) leukemia
  GI50: 2.6 µM
  TGI: 7.58 µM
HOP-62 NSCLC
  GI50: 5.7 µM
  TGI: 19.1 µM
HOP-92 NSCLC
  GI50: 2.6 µM
  TGI: 7.78 µM
HS 578T breast
  GI50: 5.53 µM
  TGI: > 100 µM
HT29 colon
  GI50: 1.86 µM
  TGI: 3.64 µM
K-562 leukemia
  GI50: 3.1 µM
  TGI: 10.7 µM
KM12 colon
  GI50: 4.52 µM
  TGI: 16.6 µM
LOX IMVI melanoma
  GI50: 2.12 µM
  TGI: 4.57 µM
M14 melanoma
  GI50: 6.6 µM
  TGI: 21 µM
MALME-3M melanoma
  GI50: 2.98 µM
  TGI: 7.49 µM
MCF7 breast
  GI50: 3.85 µM
  TGI: 13.2 µM
MDA-MB-231 breast
  GI50: 3.49 µM
  TGI: 10.6 µM
MDA-MB-435
  GI50: 2.31 µM
  TGI: 7.1 µM
MOLT-4 leukemia
  GI50: 3.16 µM
  TGI: 10.4 µM
NCI-H226 lung
  GI50: 3.24 µM
  TGI: 10.2 µM
NCI-H23 lung
  GI50: 2.98 µM
  TGI: 9.72 µM
NCI-H460 lung
  GI50: 3.99 µM
  TGI: 15.1 µM
NCI-H522 lung
  GI50: 1.77 µM
  TGI: 4.29 µM
NCI/ADR-RES ovarian
  GI50: 3.39 µM
  TGI: 12.2 µM
OVCAR-3 ovarian
  GI50: 3.15 µM
  TGI: 8.68 µM
OVCAR-4 ovarian
  GI50: 7.58 µM
  TGI: 19.5 µM
OVCAR-5 ovarian
  GI50: 11.9 µM
  TGI: 26.5 µM
OVCAR-8 ovarian
  GI50: 3.83 µM
  TGI: 13.4 µM
PC-3 prostate
  GI50: 2.75 µM
  TGI: 7.96 µM
RPMI-8226 leukemia
  GI50: 2.15 µM
  TGI: 5.49 µM
RXF 393 renal
  GI50: 2.07 µM
  TGI: 3.72 µM
SF-268 CNS
  GI50: 3.83 µM
  TGI: 13.7 µM
SF-295 CNS
  GI50: 6.21 µM
  TGI: 21.2 µM
SF-539 CNS
  GI50: 2.77 µM
  TGI: 6.15 µM
SK-MEL-2 melanoma
  GI50: 2.73 µM
  TGI: 7.05 µM
SK-MEL-28 melanoma
  GI50: 2.43 µM
  TGI: 5.1 µM
SK-MEL-5 melanoma
  GI50: 9.25 µM
  TGI: 21.5 µM
SK-OV-3 ovarian
  GI50: 14.8 µM
  TGI: 28 µM
SN12C renal
  GI50: 7.24 µM
  TGI: 23.1 µM
SNB-19 CNS
  GI50: 3.55 µM
  TGI: 13.8 µM
SNB-75 CNS
  GI50: 2.66 µM
  TGI: 8.75 µM
SR leukemia
  GI50: 1.69 µM
  TGI: 10.3 µM
SW-620 colon
  GI50: 1.91 µM
  TGI: 4.32 µM
T-47D breast
  GI50: 9.62 µM
  TGI: 25.7 µM
U251 CNS
  GI50: 2.9 µM
  TGI: 7.59 µM
UACC-257 melanoma
  GI50: 6.46 µM
  TGI: 19.4 µM
UACC-62 melanoma
  GI50: 2.26 µM
  TGI: 6.72 µM
UO-31 renal
  GI50: 1.62 µM
  TGI: 3.61 µM
